The source of these data is ChEMBL document CHEMBL3817771, “Structure-Based Design of Peptidic Inhibitors of the Interaction between CC Chemokine Ligand 5 (CCL5) and Human Neutrophil Peptides 1 (HNP1)” (J Med Chem, 2016).

For experiment [1], the target named is T1, C-C motif chemokine 5/Neutrophil defensin 1 (Defensin, alpha 1) (Homo sapiens) (UniProt P13501+P59665). Put plainly: Inhibition of CCL5 (unknown origin)-HNP1 (unknown origin) interaction in HUVEC assessed as reduction in CCL5-HNP1-driven human monocyte adhesion at 100 ug/ml pre-incubated for 5 mins before human monocyte addition. The class given is cell-based.
T1 sequence (P13501 whole entry, looked up): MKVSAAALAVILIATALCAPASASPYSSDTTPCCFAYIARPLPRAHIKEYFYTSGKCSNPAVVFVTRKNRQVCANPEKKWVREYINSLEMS
T1 sequence (P59665 whole entry, looked up): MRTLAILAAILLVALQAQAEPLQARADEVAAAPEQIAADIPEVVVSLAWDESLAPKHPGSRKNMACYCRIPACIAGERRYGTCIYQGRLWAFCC

Experiment [2] concerns the target T1, C-C motif chemokine 5/Neutrophil defensin 1 (Defensin, alpha 1) (Homo sapiens). Description: Inhibition of CCL5 (unknown origin)-HNP1 (unknown origin) interaction in HUVEC assessed as CCL5-HNP1-driven human monocyte adhesion at 100 ug/ml pre-incubated for 5 mins before human monocyte addition. The format is cell-based. The arrangement: scale not given: the % may be the effect or the level left.

The source made the active and inactive calls. The rule behind the calls is not given here. Peptide text beside a SMILES is read from it.

For the compound `CC(C)C[C@@H]1NC(=O)[C@H](CCCNC(=N)N)NC(=O)CNC(=O)[C@H](CCC(N)=O)NC(=O)[C@H](Cc2ccc(O)cc2)NC(=O)[C@H](CCCCN)NC(=O)[C@H](C)NC(=O)[C@H]([C@@H](C)O)NC(=O)CNC(=O)[C@H](Cc2ccc(O)cc2)NC(=O)[C@H](CCCNC(=N)N)NC(=O)[C@H](CCCNC(=N)N)NC(=O)[C@@H](N)CSSC[C@@H](C(N)=O)NC(=O)[C@H](C)NC(=O)[C@H](Cc2ccccc2)NC(=O)[C@H](C)NC(=O)[C@H](Cc2c[nH]c3ccccc23)NC1=O` (HELM PEPTIDE1{C.R.R.Y.G.T.A.K.Y.Q.G.R.L.W.A.F.A.C.[am]}$PEPTIDE1,PEPTIDE1,1:R3-18:R3$$$V2.0), in experiment [1], the inhibition result was “Active”.

Consider H-RRYGTSKYQ-OH, for which the inhibition result in experiment [1] was “Active”. For the same compound, the Activity in experiment [2] stood at 11.8%. As for H-YQGRLWAFSS-OH, the inhibition entry in experiment [1] is “Active”. As to H-RRYGTSIYQ-OH, the inhibition result in experiment [1] is “Active”.

Regarding H-RRYGTSRYQ-OH, the inhibition result in experiment [1] is “Active”. Same read-out and setting: to H-TYQRRSGKY-OH belongs “inactive”.
